Source: ChEMBL document CHEMBL3616407, “The imidazo[1,2-a]pyridine ring system as a scaffold for potent dual phosphoinositide-3-kinase (PI3K)/mammalian target of rapamycin (mTOR) inhibitors” (Bioorg Med Chem Lett, 2015)

What was measured:
Format in all cases: ADME, organism-based
Conditions in all cases: in vivo
[1] = Volume of distribution in iv dosed rat
[2] = Oral bioavailability in rat at 2 mg/kg
[3] = AUC in rat at 2 mg/kg, po
Plasma = experiment: Unbound plasma concentration in mouse

Vd [1]: 4.2 L/kg
bioavailability [2]: 51%
AUC [3]: 640 ng·h/mL
Cp(f) (Plasma): 84 nM
SMILES: COc1ncc(Nc2nc3ccc(C(C)(C)O)cn3c2-c2nc(C)nc(N)n2)cc1F
